{"source": "ChEMBL document CHEMBL2010722", "about": "“Structure-activity relationship study of beta-carboline derivatives as haspin kinase inhibitors” (Bioorg Med Chem Lett, 2012)", "key": {"[1]": {"target": "Serine/threonine-protein kinase SIK2 (Homo sapiens) (UniProt Q9H0K1)", "experiment": "Inhibition of QIK at 10 uM"}, "[2]": {"target": "RAC-alpha serine/threonine-protein kinase (Homo sapiens) (UniProt P31749)", "experiment": "Inhibition of AKT1 at 10 uM"}, "[3]": {"target": "Fibroblast growth factor receptor 4 (Homo sapiens) (UniProt P22455)", "experiment": "Inhibition of FGFR4 at 10 uM"}, "[4]": {"target": "Ribosomal protein S6 kinase alpha-6 (Homo sapiens) (UniProt Q9UK32)", "experiment": "Inhibition of RSK4 N-terminal at 10 uM"}, "[5]": {"target": "Dual specificity protein kinase TTK (Homo sapiens) (UniProt P33981)", "experiment": "Inhibition of TTK at 10 uM"}, "[6]": {"target": "Tyrosine-protein kinase Fer (Homo sapiens) (UniProt P16591)", "experiment": "Inhibition of FER at 10 uM"}, "[7]": {"test_system": "Proto-oncogene tyrosine-protein kinase receptor Ret (Homo sapiens), P07949 [M918T]", "experiment": "Inhibition of RET M918T mutant at 10 uM"}, "[8]": {"test_system": "Fibroblast growth factor receptor 3 (Homo sapiens), P22607 [K650E]", "experiment": "Inhibition of FGFR3 K650E mutant at 10 uM"}, "[9]": {"test_system": "Mast/stem cell growth factor receptor Kit (Homo sapiens), P10721 [T670I]", "experiment": "Inhibition of KIT T670I mutant at 10 uM"}, "[10]": {"target": "Mitogen-activated protein kinase kinase kinase 10 (Homo sapiens) (UniProt Q02779)", "experiment": "Inhibition of MLK2 at 10 uM"}, "[11]": {"target": "Tyrosine-protein kinase Lck (Homo sapiens) (UniProt P06239)", "sequence (P06239 2-509 limits assumed)": "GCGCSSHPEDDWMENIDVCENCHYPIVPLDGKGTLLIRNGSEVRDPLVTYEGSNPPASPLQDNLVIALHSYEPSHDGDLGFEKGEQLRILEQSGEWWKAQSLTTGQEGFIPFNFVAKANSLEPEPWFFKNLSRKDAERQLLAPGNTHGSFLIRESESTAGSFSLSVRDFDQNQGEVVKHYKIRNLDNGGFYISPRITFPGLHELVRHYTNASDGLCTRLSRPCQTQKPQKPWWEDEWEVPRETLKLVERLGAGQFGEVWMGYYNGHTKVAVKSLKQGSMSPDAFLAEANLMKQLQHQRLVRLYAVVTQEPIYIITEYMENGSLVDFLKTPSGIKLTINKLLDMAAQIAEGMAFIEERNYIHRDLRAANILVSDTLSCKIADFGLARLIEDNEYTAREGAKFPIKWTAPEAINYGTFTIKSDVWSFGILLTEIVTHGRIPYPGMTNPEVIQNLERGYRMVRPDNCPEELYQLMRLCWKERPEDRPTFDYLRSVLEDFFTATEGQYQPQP", "experiment": "Inhibition of LCK at 10 uM"}, "[12]": {"target": "Proto-oncogene tyrosine-protein kinase receptor Ret (Homo sapiens) (UniProt P07949)", "experiment": "Inhibition of RET at 10 uM"}, "[13]": {"target": "Serine/threonine-protein kinase pim-2 (Homo sapiens) (UniProt Q9P1W9)", "experiment": "Inhibition of PIM2 at 10 uM"}, "[14]": {"target": "Homeodomain-interacting protein kinase 1 (Homo sapiens) (UniProt Q86Z02)", "experiment": "Inhibition of HIPK1 at 10 uM"}, "[15]": {"target": "MAP kinase-interacting serine/threonine-protein kinase 1 (Homo sapiens) (UniProt Q9BUB5)", "experiment": "Inhibition of MNK1 at 10 uM"}, "[16]": {"target": "Mitogen-activated protein kinase kinase kinase 1 (Homo sapiens) (UniProt Q13233)", "experiment": "Inhibition of MAP3K1 at 10 uM"}, "[17]": {"target": "Misshapen-like kinase 1 (Homo sapiens) (UniProt Q8N4C8)", "sequence (Q8N4C8 whole entry, looked up)": "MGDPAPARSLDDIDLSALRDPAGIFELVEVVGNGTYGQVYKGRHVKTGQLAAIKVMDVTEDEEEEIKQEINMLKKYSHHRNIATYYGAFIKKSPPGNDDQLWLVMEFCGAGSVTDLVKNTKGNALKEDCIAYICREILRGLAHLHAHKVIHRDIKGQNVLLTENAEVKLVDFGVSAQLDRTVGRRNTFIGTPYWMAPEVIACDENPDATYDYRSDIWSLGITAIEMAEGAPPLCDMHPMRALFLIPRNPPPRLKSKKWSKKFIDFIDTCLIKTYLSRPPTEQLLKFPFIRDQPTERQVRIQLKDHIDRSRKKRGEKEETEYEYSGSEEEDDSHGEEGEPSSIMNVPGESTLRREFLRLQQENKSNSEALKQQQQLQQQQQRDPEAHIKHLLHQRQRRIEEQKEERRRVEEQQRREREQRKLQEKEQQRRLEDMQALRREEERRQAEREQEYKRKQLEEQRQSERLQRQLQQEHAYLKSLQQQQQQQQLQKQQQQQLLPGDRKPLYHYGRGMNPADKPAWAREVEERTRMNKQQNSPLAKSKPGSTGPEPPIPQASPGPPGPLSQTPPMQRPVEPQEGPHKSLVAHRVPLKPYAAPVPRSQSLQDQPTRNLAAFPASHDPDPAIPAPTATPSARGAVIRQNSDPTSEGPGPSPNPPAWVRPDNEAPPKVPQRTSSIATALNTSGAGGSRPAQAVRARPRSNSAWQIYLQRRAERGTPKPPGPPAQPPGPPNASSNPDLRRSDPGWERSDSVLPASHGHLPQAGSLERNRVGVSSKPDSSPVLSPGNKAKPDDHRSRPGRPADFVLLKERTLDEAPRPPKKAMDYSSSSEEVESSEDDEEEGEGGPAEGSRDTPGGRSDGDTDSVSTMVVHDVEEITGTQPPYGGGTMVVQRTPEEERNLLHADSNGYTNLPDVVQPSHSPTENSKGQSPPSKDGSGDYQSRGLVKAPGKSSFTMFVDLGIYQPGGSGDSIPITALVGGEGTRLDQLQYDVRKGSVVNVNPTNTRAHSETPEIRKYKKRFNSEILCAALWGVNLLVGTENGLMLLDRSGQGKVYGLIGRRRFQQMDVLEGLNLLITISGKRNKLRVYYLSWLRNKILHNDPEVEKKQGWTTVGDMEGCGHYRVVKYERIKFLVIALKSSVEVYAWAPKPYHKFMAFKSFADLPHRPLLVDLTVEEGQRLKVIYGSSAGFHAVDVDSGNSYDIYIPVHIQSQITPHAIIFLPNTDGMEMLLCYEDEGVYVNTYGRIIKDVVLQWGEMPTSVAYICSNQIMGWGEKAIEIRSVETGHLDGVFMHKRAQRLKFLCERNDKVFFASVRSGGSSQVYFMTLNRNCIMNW", "experiment": "Inhibition of MINK at 10 uM"}, "[18]": {"target": "Mitogen-activated protein kinase 10 (Homo sapiens) (UniProt P53779)", "experiment": "Inhibition of JNK3 at 10 uM"}, "[19]": {"target": "Calcium/calmodulin-dependent protein kinase type II subunit gamma (Homo sapiens) (UniProt Q13555)", "experiment": "Inhibition of CaMK2g at 10 uM"}, "[20]": {"target": "Receptor tyrosine-protein kinase erbB-2 (Homo sapiens) (UniProt P04626)", "experiment": "Inhibition of HER2 at 10 uM"}, "[21]": {"experiment": "Inhibition of CDK4/[…] at 10 uM"}, "[22]": {"target": "Serine/threonine-protein kinase BRSK2 (Homo sapiens) (UniProt Q8IWQ3)", "experiment": "Inhibition of BRSK2 at 10 uM"}, "[23]": {"target": "Ephrin type-A receptor 5 (Homo sapiens) (UniProt P54756)", "experiment": "Inhibition of EPHA5 at 10 uM"}, "[24]": {"target": "Macrophage-stimulating protein receptor (Homo sapiens) (UniProt Q04912)", "experiment": "Inhibition of RON at 10 uM"}, "[25]": {"target": "Dual specificity tyrosine-phosphorylation-regulated kinase 3 (Homo sapiens) (UniProt O43781)", "experiment": "Inhibition of DYRK3 at 10 uM"}, "[26]": {"target": "Mast/stem cell growth factor receptor Kit (Homo sapiens) (UniProt P10721)", "experiment": "Inhibition of KIT at 10 uM"}, "[27]": {"target": "Serine/threonine-protein kinase PLK4 (Homo sapiens) (UniProt O00444)", "experiment": "Inhibition of PLK4 at 10 uM"}, "[28]": {"target": "Dual specificity protein kinase CLK3 (Homo sapiens) (UniProt P49761)", "experiment": "Inhibition of CLK3 at 10 uM"}, "[29]": {"target": "Dual specificity mitogen-activated protein kinase kinase 7 (Homo sapiens) (UniProt O14733)", "experiment": "Inhibition of MAP2K7 at 10 uM"}, "[30]": {"target": "Serine/threonine-protein kinase 38 (Homo sapiens) (UniProt Q15208)", "experiment": "Inhibition of NDR1 at 10 uM"}, "[31]": {"target": "Tyrosine-protein kinase HCK (Homo sapiens) (UniProt P08631)", "experiment": "Inhibition of HCK at 10 uM"}, "[32]": {"target": "Serine/threonine-protein kinase PLK2 (Homo sapiens) (UniProt Q9NYY3)", "experiment": "Inhibition of PLK2 at 10 uM"}, "[33]": {"target": "Tyrosine-protein kinase Lyn (Homo sapiens) (UniProt P07948)", "experiment": "Inhibition of LYNb at 10 uM"}, "[34]": {"target": "Leukocyte tyrosine kinase receptor (Homo sapiens) (UniProt P29376)", "sequence (P29376 whole entry)": "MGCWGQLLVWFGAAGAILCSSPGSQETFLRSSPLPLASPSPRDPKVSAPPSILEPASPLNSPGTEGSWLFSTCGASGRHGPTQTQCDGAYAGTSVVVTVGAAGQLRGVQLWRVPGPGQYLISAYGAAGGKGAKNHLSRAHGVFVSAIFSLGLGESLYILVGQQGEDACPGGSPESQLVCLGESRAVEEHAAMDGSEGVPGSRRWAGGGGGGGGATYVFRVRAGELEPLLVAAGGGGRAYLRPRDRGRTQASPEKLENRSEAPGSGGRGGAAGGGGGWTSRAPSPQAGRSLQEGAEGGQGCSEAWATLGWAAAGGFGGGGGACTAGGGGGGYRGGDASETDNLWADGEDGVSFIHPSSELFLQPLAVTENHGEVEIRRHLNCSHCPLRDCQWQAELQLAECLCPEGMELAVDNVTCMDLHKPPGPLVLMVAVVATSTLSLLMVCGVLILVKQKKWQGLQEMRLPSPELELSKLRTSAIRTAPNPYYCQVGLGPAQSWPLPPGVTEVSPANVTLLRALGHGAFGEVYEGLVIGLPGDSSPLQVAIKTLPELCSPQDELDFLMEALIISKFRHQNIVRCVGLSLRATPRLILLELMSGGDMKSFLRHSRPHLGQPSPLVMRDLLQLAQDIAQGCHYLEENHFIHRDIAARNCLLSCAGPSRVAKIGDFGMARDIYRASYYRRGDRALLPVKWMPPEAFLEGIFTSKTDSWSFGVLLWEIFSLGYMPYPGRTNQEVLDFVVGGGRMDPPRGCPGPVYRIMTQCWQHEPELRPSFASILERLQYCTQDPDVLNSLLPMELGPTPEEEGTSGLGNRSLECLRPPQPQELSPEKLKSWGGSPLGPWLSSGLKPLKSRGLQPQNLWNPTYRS", "experiment": "Inhibition of LTK at 10 uM"}, "[35]": {"target": "Mitogen-activated protein kinase kinase kinase 11 (Homo sapiens) (UniProt Q16584)", "experiment": "Inhibition of MLK3 at 10 uM"}, "[36]": {"target": "Ribosomal protein S6 kinase beta-2 (Homo sapiens) (UniProt Q9UBS0)", "experiment": "Inhibition of p70S6Kb at 10 uM"}, "[37]": {"target": "Rho-associated protein kinase 2 (Homo sapiens) (UniProt O75116)", "sequence (O75116 whole entry, looked up)": "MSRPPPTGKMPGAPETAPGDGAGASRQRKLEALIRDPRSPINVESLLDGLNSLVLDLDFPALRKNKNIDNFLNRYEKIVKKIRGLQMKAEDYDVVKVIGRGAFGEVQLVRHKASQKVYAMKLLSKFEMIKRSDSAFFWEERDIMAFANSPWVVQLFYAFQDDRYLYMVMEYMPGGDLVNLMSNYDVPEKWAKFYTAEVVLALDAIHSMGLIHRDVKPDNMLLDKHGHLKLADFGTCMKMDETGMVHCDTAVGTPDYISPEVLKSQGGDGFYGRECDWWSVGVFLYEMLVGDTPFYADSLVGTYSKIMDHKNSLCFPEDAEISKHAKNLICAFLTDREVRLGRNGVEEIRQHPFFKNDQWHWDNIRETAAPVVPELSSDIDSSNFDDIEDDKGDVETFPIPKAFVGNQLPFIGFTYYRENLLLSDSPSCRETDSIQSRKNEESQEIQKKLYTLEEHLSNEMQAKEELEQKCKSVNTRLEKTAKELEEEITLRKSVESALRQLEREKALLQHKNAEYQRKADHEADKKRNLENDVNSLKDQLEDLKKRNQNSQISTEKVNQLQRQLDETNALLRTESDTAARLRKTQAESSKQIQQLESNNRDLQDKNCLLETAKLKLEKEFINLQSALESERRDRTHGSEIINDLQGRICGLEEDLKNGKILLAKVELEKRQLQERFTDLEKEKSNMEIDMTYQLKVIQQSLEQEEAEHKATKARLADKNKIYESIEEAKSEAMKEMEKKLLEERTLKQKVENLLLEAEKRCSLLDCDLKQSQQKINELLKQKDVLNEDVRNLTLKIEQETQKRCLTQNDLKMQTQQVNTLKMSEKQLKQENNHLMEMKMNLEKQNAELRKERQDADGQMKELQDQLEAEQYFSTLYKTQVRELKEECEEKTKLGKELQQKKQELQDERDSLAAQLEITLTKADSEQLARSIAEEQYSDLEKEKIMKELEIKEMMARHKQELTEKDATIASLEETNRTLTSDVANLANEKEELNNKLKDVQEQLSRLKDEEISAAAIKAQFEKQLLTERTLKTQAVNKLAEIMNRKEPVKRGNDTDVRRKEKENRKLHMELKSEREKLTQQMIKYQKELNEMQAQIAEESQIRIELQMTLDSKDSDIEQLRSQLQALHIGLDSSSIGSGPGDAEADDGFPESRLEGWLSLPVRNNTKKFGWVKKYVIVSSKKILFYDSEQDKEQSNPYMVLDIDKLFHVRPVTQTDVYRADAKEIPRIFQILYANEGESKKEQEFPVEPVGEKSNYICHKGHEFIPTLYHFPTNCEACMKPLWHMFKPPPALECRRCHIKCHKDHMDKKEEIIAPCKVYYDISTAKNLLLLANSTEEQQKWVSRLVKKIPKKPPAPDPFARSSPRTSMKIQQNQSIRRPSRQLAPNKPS", "experiment": "Inhibition of ROCK2 at 10 uM"}, "[38]": {"target": "Serine/threonine-protein kinase pim-3 (Homo sapiens) (UniProt Q86V86)", "experiment": "Inhibition of PIM3 at 10 uM"}, "[39]": {"target": "Cyclin-dependent kinase 5/CDK5 activator 1 (Homo sapiens) (UniProt Q00535+Q15078)", "experiment": "Inhibition of CDK5-p25 at 10 uM", "assay_type": "protein-complex assay"}, "[40]": {"target": "Dual specificity protein kinase CLK1 (Homo sapiens) (UniProt P49759)", "details": "10 uM"}, "[41]": {"target": "Cyclin-dependent kinase 2/cyclin A (Homo sapiens) (UniProt P24941+P20248+P78396)", "experiment": "Inhibition of CDK2-Cyclin A2 at 10 uM", "assay_type": "protein-complex assay"}, "[42]": {"target": "Mitogen-activated protein kinase kinase kinase 12 (Homo sapiens) (UniProt Q12852)", "experiment": "Inhibition of DLK at 10 uM"}, "[43]": {"target": "Receptor-type tyrosine-protein kinase FLT3 (Homo sapiens) (UniProt P36888)", "experiment": "Inhibition of FLT3 at 10 uM"}, "[44]": {"target": "RAC-gamma serine/threonine-protein kinase (Homo sapiens) (UniProt Q9Y243)", "sequence (Q9Y243 whole entry)": "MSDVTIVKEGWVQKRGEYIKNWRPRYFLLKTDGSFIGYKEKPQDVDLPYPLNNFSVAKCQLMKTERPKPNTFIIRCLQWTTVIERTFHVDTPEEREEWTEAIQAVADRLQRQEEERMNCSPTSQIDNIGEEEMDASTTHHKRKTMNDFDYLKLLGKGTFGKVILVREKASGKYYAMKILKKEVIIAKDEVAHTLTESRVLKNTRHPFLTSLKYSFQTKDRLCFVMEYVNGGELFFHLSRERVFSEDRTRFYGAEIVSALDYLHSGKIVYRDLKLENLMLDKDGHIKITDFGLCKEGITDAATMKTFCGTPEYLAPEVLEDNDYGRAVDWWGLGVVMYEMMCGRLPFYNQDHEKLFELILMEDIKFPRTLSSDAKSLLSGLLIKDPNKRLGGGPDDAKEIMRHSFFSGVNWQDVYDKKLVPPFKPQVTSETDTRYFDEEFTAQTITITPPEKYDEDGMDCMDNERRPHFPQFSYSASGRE", "experiment": "Inhibition of AKT3 at 10 uM"}, "[45]": {"target": "Vascular endothelial growth factor receptor 3 (Homo sapiens) (UniProt P35916)", "experiment": "Inhibition of FLT4 at 10 uM"}, "[46]": {"target": "Serine/threonine-protein kinase Sgk1 (Homo sapiens) (UniProt O00141)", "sequence (O00141 whole entry)": "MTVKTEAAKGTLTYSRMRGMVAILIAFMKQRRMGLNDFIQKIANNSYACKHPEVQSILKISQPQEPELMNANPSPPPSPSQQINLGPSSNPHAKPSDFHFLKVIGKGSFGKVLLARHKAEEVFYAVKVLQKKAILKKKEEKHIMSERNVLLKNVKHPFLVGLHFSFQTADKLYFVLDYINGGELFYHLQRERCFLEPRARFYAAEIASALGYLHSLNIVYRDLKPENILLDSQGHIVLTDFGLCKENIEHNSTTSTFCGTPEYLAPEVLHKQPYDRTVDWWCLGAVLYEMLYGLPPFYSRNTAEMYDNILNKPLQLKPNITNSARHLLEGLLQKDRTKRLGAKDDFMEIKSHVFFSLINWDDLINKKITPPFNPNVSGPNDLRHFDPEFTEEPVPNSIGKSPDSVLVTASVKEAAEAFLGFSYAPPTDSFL", "experiment": "Inhibition of SGK at 10 uM"}, "[47]": {"target": "BDNF/NT-3 growth factors receptor (Homo sapiens) (UniProt Q16620)", "experiment": "Inhibition of TRKB at 10 uM"}}}
{"smiles": "COc1ccc2c3ccnc(C(F)(F)F)c3n(CCCCN)c2c1", "values": [{"measurement": "inhibition", "setting": "[1]", "value": 26, "unit": "%"}, {"measurement": "inhibition", "setting": "[2]", "value": 23, "unit": "%"}, {"measurement": "inhibition", "setting": "[3]", "value": 6, "unit": "%"}, {"measurement": "inhibition", "setting": "[4]", "value": 23, "unit": "%"}, {"measurement": "inhibition", "setting": "[5]", "value": 6, "unit": "%"}, {"measurement": "inhibition", "setting": "[6]", "value": 8, "unit": "%"}, {"measurement": "inhibition", "setting": "[7]", "value": 9, "unit": "%"}, {"measurement": "inhibition", "setting": "[8]", "value": 3, "unit": "%"}, {"measurement": "inhibition", "setting": "[9]", "value": 16, "unit": "%"}, {"measurement": "inhibition", "setting": "[10]", "value": 5, "unit": "%"}, {"measurement": "inhibition", "setting": "[11]", "value": 11, "unit": "%"}, {"measurement": "inhibition", "setting": "[12]", "value": 11, "unit": "%"}, {"measurement": "inhibition", "setting": "[13]", "value": 64, "unit": "%"}, {"measurement": "inhibition", "setting": "[14]", "value": 41, "unit": "%"}, {"measurement": "inhibition", "setting": "[15]", "value": 37, "unit": "%"}, {"measurement": "inhibition", "setting": "[16]", "value": 0, "unit": "%"}, {"measurement": "inhibition", "setting": "[17]", "value": 17, "unit": "%"}, {"measurement": "inhibition", "setting": "[18]", "value": 17, "unit": "%"}, {"measurement": "inhibition", "setting": "[19]", "value": 78, "unit": "%"}, {"measurement": "inhibition", "setting": "[20]", "value": 0, "unit": "%"}, {"measurement": "inhibition", "setting": "[21]", "value": 27, "unit": "%"}, {"measurement": "inhibition", "setting": "[22]", "value": 30, "unit": "%"}, {"measurement": "inhibition", "setting": "[23]", "value": 4, "unit": "%"}, {"measurement": "inhibition", "setting": "[24]", "value": 0, "unit": "%"}, {"measurement": "inhibition", "setting": "[25]", "value": 97, "unit": "%"}, {"measurement": "inhibition", "setting": "[26]", "value": 10, "unit": "%"}, {"measurement": "inhibition", "setting": "[27]", "value": 22, "unit": "%"}, {"measurement": "inhibition", "setting": "[28]", "value": 37, "unit": "%"}, {"measurement": "inhibition", "setting": "[29]", "value": 15, "unit": "%"}, {"measurement": "inhibition", "setting": "[30]", "value": 4, "unit": "%"}, {"measurement": "inhibition", "setting": "[31]", "value": 1, "unit": "%"}, {"measurement": "inhibition", "setting": "[32]", "value": 15, "unit": "%"}, {"measurement": "inhibition", "setting": "[33]", "value": 0, "unit": "%"}, {"measurement": "inhibition", "setting": "[34]", "value": 5, "unit": "%"}, {"measurement": "inhibition", "setting": "[35]", "value": 3, "unit": "%"}, {"measurement": "inhibition", "setting": "[36]", "value": 75, "unit": "%"}, {"measurement": "inhibition", "setting": "[37]", "value": 87, "unit": "%"}, {"measurement": "inhibition", "setting": "[38]", "value": 89, "unit": "%"}, {"measurement": "inhibition", "setting": "[39]", "value": 39, "unit": "%"}, {"measurement": "inhibition", "setting": "[40]", "value": 100, "unit": "%"}, {"measurement": "inhibition", "setting": "[41]", "value": 65, "unit": "%"}, {"measurement": "inhibition", "setting": "[42]", "value": 3, "unit": "%"}, {"measurement": "inhibition", "setting": "[43]", "value": 74, "unit": "%"}, {"measurement": "inhibition", "setting": "[44]", "value": 12, "unit": "%"}, {"measurement": "inhibition", "setting": "[45]", "value": 9, "unit": "%"}, {"measurement": "inhibition", "setting": "[46]", "value": 34, "unit": "%"}, {"measurement": "inhibition", "setting": "[47]", "value": 7, "unit": "%"}]}
